SMILES strings stand for the structures. A value given as a limit tells only on which side of the number the result lay.

The melting point is the temperature, or range, at which the solid turns liquid.

For the compound `CCOc1nn(Cc2ccnc(OCc3cn4c(Cl)cccc4n3)c2)cc1CCC(=O)O`, the melting point lay within 160 to 161 °C.

`COC(=O)c1ncn2c1[C@@H]1CCCN1C(=O)c1sccc1-2` came in with a melting point of 192 to 193 °C.

Regarding `O=C(CCc1ccc(OCc2ccccc2)cc1)c1ncc(-c2ccccn2)o1`, the melting point was 99 to 100 °C.

For `COC(=O)c1ccc(CNC(=O)c2cccc(-c3nnn(Cc4ccc(OC)cc4)n3)c2)cc1`, the melting point fell in the range of 167 to 168 °C.

Regarding `CC(C)(C)OC(=O)NC(C(=O)O)c1c[nH]c2ccccc12` (stereo not given), the melting point was found to be 144 °C.

For the compound `OC1(c2ccoc2)CN2CCC1CC2` (stereo not given), the melting point fell in the range of 130 to 133 °C.

For `COc1ccc(-c2cc(F)cc3c2OC(CN)C3)c(OC)c1` (stereo not given), the melting point lay in the range of 141 to 143 °C.

`Clc1c(Cl)c(Cl)c2[nH]c(NC3=NCCN3)nc2c1Cl`: the melting point turned out to be 310 °C.

As for `CC(C)c1c(C=O)c(-c2ccc(F)cc2)n2ccccc12`, the melting point fell in the range of 97 to 98 °C.

Compound `N#CC(C#N)=C1N(CCCN2CCCCC2)CCN1C1CCN(Cc2ccccc2)CC1` gave a melting point of 156 to 158 °C.

Consider `COc1cc(C(Cl)(Cl)Cl)cc(OC)n1`, for which the melting point was 71 to 73 °C.

In the case of `Brc1ccccc1P(c1cccc2ccccc12)c1cccc2ccccc12`, the melting point fell in the range of 206 to 207 °C.

Regarding `CCON=C(C)c1ccc2c(c1)ncn2-c1cccc(C2=CCCN(C)C2)c1`, the melting point lay within 138 to 143 °C.

Compound `Cc1oncc1C(=O)Nc1ccc(N)cc1` returned a melting point of 123 to 128 °C.

In the case of `CCOC(=O)c1ncn2c3cccc(I)c3c(=O)n(C)c12`, the melting point was in the range of 266 to 267 °C.

Consider `Cc1ccc(C(=O)Nc2ccc(-n3ccnc3C)c(C(F)(F)F)c2)cc1Nc1nccc(-c2cccnc2)n1`, for which the melting point was in the range of 154 to 163 °C.

For the compound `CCOC(=O)c1cnoc1-c1ccc(F)c(Br)c1`, the melting point fell in the range of 111 to 112 °C.

`CCC(C(=O)c1ccc(Cl)cc1)n1ncn(-c2ccc(N3CCN(c4cc(C)cc(C)n4)CC3)nc2)c1=O` (stereo not given) came in with a melting point of 113 °C.

Turning to `CC(C)NC(=O)NCC(=O)O`, the melting point came out at 178 °C.

On to `Oc1ccccc1OCC1CCN(CC(O)COc2cccc3[nH]ccc23)CC1` (stereo not given), for which the melting point was 119 to 121 °C.

`COC(=O)c1ccc(C(=O)Nc2sc3c(c2C(=O)NCc2ccc4c(c2)OCO4)CCCC3)cc1` returned a melting point of 138 °C.

`O=S(=O)(Nc1ccc(Cl)cc1-c1nc2ccc(S(=O)(=O)N3CCOCC3)cc2[nH]1)c1ccc(Cl)cc1`: the melting point was 225 to 228 °C.

`CCC(C)(C)NC(=S)Nc1cc(Cl)cc(Cl)c1` gave a melting point of 134 to 136 °C.

With `CCCCCCC(C(=O)O)n1cnc([N+](=O)[O-])c1` (stereo not given), the melting point was in the range of 112 to 114 °C.

`Cc1cc(-c2ccc(C(F)(F)F)cc2)nc2c(C(=O)Nc3cccc(S(N)(=O)=O)c3)cnn12` had a melting point of 270 to 272 °C.

As to `Cc1cc([N+](=O)[O-])c(C)cc1O`, the melting point is 121 to 123 °C.

Regarding `CCc1c(C#N)c(-c2ccc(C#N)cc2)c(C)n1Cc1cnc(Cl)c(CO)c1`, the melting point lay within 126 to 127 °C.

For the compound `CCOC(=O)CC(=O)c1cc(F)c(Cl)cc1Cl`, the melting point lay within 44 to 45 °C.

As for `O=C(O)c1cc(Br)c(O)cc1O`, the melting point lay in the range of 210 to 212 °C.

Take `CCC1Oc2cccc3nc4c(c(c23)NC1=O)CCCC4` (stereo not given): the melting point was 182 to 183 °C.

In turn, `COc1cc(N)c(Cl)cc1C(=O)N[C@H]1CCNC[C@H]1OC` (relative stereo) gave a melting point of 184 °C.

As for `CNCCCS(=O)(=O)CCCC(F)(F)C(F)(F)F`, the melting point lay in the range of 55 to 57 °C.

Regarding `COc1cc(NC(C)=O)c(Cl)cc1C(=O)NN1CCN(C)CC1`, the melting point was 198 to 200 °C.

In turn, `CCCNC(=O)NCc1cccc2c1CN(C1CCC(=O)NC1=O)C2=O` (stereo not given) showed a melting point of 298 to 300 °C.

As for `CCCN1CCC(C(=O)Nc2ccc(CN(C)C3CCOCC3)cc2)=Cc2cc(Br)ccc21`, the melting point was 134 to 136 °C.

As to `COC(=O)CCCCNC(=O)C(CS)Cc1ccccc1` (stereo not given), the melting point lay within 39 to 41 °C.

In the case of `ClC(Cl)(Cl)c1cc(-c2ccccc2)c2ccc3c(-c4ccccc4)cc(C(Cl)(Cl)Cl)nc3c2n1`, the melting point was 180 to 184 °C.

Regarding `Cc1ccc2c(c1)C(C(Cl)(Cl)Cl)OC(C(Cl)(Cl)Cl)O2` (stereo not given), the melting point fell in the range of 134 to 135 °C.

For the compound `COc1ccc(NN=C(C)C)cc1`, the melting point lay within 163 to 164 °C.

Regarding `N#Cc1c2n(c(=O)n1-c1cc(O)c(Cl)cc1F)CCCC2`, the melting point fell in the range of 204 to 206 °C.

Compound `COc1cccc(-c2[nH]c3ccc(OCc4ccccc4)cc3c2C)c1` returned a melting point of 107 to 109 °C.

The compound `COc1ccc(Oc2cccc(CCN(C)CCN(O)C(N)=O)c2)cc1` had a melting point of 87 to 88.5 °C.

Turning to `COc1cc(C(C)=O)ccc1-c1ccc(F)cc1`, the melting point is 75 to 77 °C.

The compound `Cn1c(=O)c2c(nc3n(Cc4ccccc4)c(=O)cc(O)n23)n(C)c1=O` yielded a melting point of 206 to 209 °C.

`CC(C)C(=O)N(Cc1ccccc1)c1nnn(Cc2ccccc2)n1` yielded a melting point of 68 °C.

Compound `C#C[C@@H](O)C1CCCCC1` showed a melting point of 56 to 58 °C.

The compound `COC(=O)C1=Cc2cc(Br)ccc2S(=O)(=O)CC1` registered a melting point of 162 to 164 °C.

As for `COC(=O)c1cc(-c2ccc(Cl)cc2)nn1Cc1ccc(Cl)cc1Cl`, the melting point turned out to be 120 °C.

On to `Cc1c(C2=CCC(c3ccccc3)(N(C)C)CC2)n(CC2CO2)c2ccccc12` (stereo not given), for which the melting point was 147 to 150 °C.

In the case of `CCc1nccn1N=Cc1ccc(N(C)C)cc1`, the melting point is 120 to 121 °C.

The compound `CCn1nc(-c2ccc3cc(O)ccc3c2)c2ccc(O)cc21` yielded a melting point of 146 to 148 °C.

Compound `COC(=O)N1CCN(C(=O)c2cc(S(=O)(=O)NN(C)C)ccc2N)CC1` yielded a melting point of 169 to 171 °C.

Take `NC(CCN(CCC(N)=NO)CCN(CCC(N)=NO)CCC(N)=NO)=NO`: the melting point is 191 to 192 °C.

With `O=C1CCCN1CCc1ccccc1`, the melting point fell in the range of 50.5 to 52.5 °C.

`CCc1c(-c2ccc(OCc3ccccc3)cc2)c2c(C(=O)OC)c(C(=O)OC)c3c(OCc4ccccc4)ccc1n32` came in with a melting point of 115 to 120 °C.

With `N#CN1CCC2(CC1)CN(c1ccccc1Cl)c1ccccc12`, the melting point was in the range of 158 to 160 °C.

In turn, `CN(C)N=Nc1cc([N+](=O)[O-])sc1C(N)=O` registered a melting point of 240 to 246 °C.

Compound `COc1cccc(CC2(c3ccc4[nH]ccc4c3)CCNC2)c1` (stereo not given) registered a melting point of 170 to 171 °C.

The compound `CCC1(C)Cc2ccc(C)cc2C1=O` (stereo not given) yielded a melting point of 25.5 to 27 °C.

In turn, `CCOC(=O)c1c(SCC)cc(C(F)(F)F)nc1C(F)(F)F` showed a melting point of 36 to 37.5 °C.

Compound `CCN(CC)c1ccc2cc(-c3nc(C)c(C(=O)OC)s3)c(=O)oc2c1` showed a melting point of 252 to 253 °C.

As for `Nc1nc2ccccc2c2c1nc(O)n2Cc1cccnc1`, the melting point was over 250 °C.

With `COc1nc(Cc2ccccc2NS(=O)(=O)C(F)(F)F)nc(OC)n1`, the melting point lay in the range of 101 to 108 °C.

`COC(=O)c1ccc(C(=O)NS(=O)(=O)c2ccc(CCNC(=O)CCC(C)C)cc2)cn1` showed a melting point of 204 to 206 °C.

`COC(=O)c1cc(N2CCCC2)c(Oc2ccccc2)c(S(=O)(=O)Cl)c1` returned a melting point of 108 to 112 °C.

The compound `COc1ccc2nc(Cl)c(C=NO)cc2c1` came in with a melting point of 195 °C.

Turning to `CC(C)c1cnc(NC(=O)Cc2csc(NC(=O)CN(C)C)n2)s1`, the melting point is 70 to 71 °C.

Compound `Cc1cc2c(c3ccc(=O)[nH]c13)OC(C(O)CN=[N+]=[N-])C2` (stereo not given) showed a melting point of 173 to 175 °C.

As to `CC(C)(C)[Si](OC1CCC(O)C1COC(c1ccccc1)(c1ccccc1)c1ccccc1)(c1ccccc1)c1ccccc1` (stereo not given), the melting point lay within 95.6 to 97 °C.

As to `c1ccc2c(c1)C[C@H]1CSC(=Nc3nccs3)N1C2`, the melting point came out at 158 °C.

As for `OCCn1nc(-c2ccc(F)cc2)c(-c2ccncc2)c1C1CC1`, the melting point was in the range of 155 to 157 °C.

Take `NS(=O)(=O)c1ccc(-n2nc(C=NOCc3ccccc3)cc2-c2ccc(Cl)cc2)cc1`: the melting point is 158 to 159 °C.

In turn, `CCOC(=O)CSc1nc(Cl)cc(Nc2ccccc2)n1` registered a melting point of 109 to 114 °C.

`O=C(O)c1snnc1C1CC1` came in with a melting point of 158 to 159 °C.

`CC1CC(=O)NN=C1c1ccc(NC(=O)C(C)(C)C#N)cc1` (stereo not given): the melting point was 225 to 227 °C.

For `O=CNc1ccccc1O`, the melting point is 129 °C.

Turning to `CCCN(CCC)Cc1csc(-c2ncn3c2CN(C)C(=O)c2ccccc2-3)n1`, the melting point lay in the range of 111 to 112 °C.

The compound `CCn1nc(-c2ccccc2)c(C(=O)CCc2ccccc2)c(N)c1=O` gave a melting point of 115 to 116 °C.

`CCOC(=O)C1=C(C)NC2(C)ON=C(C)C2C1c1ccccc1[N+](=O)[O-]` (stereo not given) registered a melting point of 212 °C.

`Cc1cc(-n2ccnc2)c2cccc(OCc3c(Cl)ccc(S(=O)(=O)N4CCC[C@H]4C(=O)NCCc4ccccn4)c3Cl)c2n1` returned a melting point of 82 °C.

As to `COc1cc(N)c(C(N)=O)c(OC)c1`, the melting point was in the range of 117 to 119 °C.

For `C#Cc1cc(Cc2cnc(N)nc2N)cc(OC)c1OC`, the melting point is 173 to 175 °C.

The compound `Cc1ccc2c(c1)c(=O)c(S(C)=O)nn2C` (stereo not given) displayed a melting point of 173 to 175 °C.

In turn, `COc1ccc(N2C(=O)[C@H](O[Si](C(C)C)(C(C)C)C(C)C)[C@@H]2CC(C)C)cc1` returned a melting point of 59 to 60 °C.

For `O=C1COC2(CCN(CC(=O)c3ccc(F)cc3)CC2)CN1`, the melting point lay within 206 to 210 °C.

Compound `CCCc1nc(C(O)C(C)(C)C)c(C#N)n1Cc1ccc(-c2ccccc2-c2nnnn2C(c2ccccc2)(c2ccccc2)c2ccccc2)cc1` (stereo not given) came in with a melting point of 115 to 117 °C.

The compound `Clc1nccnc1Sc1ccccc1` registered a melting point of 100 to 111 °C.

Compound `CN1C(=O)C(NC(=O)Nc2ccccc2Cl)N=C(c2ccccc2)c2ccccc21` (stereo not given) gave a melting point of 212 to 214 °C.

Regarding `COc1ccc(C(=O)Nc2ccc3ccc(Oc4ccccc4OC)nc3n2)cc1`, the melting point lay within 168 to 170 °C.

`CN1CCN(S(=O)(=O)c2cc(-c3csc(=Nc4ccccc4)n3C)ccc2Cl)CC1` gave a melting point of 156 to 158 °C.

The record behind these values is a melting point compilation (Tetko et al.; mined from patent text by program, amines drawn as free bases though some values may be those of a salt).
